The NIST ThermoML archive (doi:10.1016/j.jct.2005.02.003)

Test: molar heat capacity at constant pressure
Settings: 101.33 kPa

CC(C)COC(C)(C)C [isobutyl tert-butyl ether]
molar heat capacity at constant pressure [J/K/mol]
Settings | Crystal | Liquid
140.78 K | 140.8 | –
141.71 K | 142 | –
142.63 K | 142.5 | –
143.56 K | 143.4 | –
144.49 K | 143.5 | –
145.41 K | 144.2 | –
146.33 K | 144.7 | –
147.24 K | 145.3 | –
149.06 K | 146.4 | –
149.71 K | – | 210
150 K | 147.3 | –
150.86 K | 147.4 | –
151.76 K | 148.4 | –
151.77 K | – | 210.7
152.66 K | 149 | –
153.55 K | 149.9 | –
153.82 K | – | 211.9
155.87 K | – | 212.5
156.22 K | 153.2 | –
157.08 K | 153.7 | –
157.9 K | – | 213.3
157.95 K | 155.8 | –
159.92 K | – | 214
160 K | 152.6 | –
161.93 K | – | 214.7
162.33 K | 153.6 | 214.8
163.93 K | – | 215.4
165.92 K | – | 216.2
167.9 K | – | 216.8
169.88 K | – | 217.5
170 K | – | 217.7
171.84 K | – | 218.3
173.8 K | – | 219.3
175.75 K | – | 220.1
177.69 K | – | 220.3
179.63 K | – | 221.1
180 K | – | 221.4
181.56 K | – | 221.9
183.49 K | – | 222.7
185.4 K | – | 223.2
187.31 K | – | 224.1
189.21 K | – | 224.7
190 K | – | 225
191.11 K | – | 225.4
193 K | – | 226
194.89 K | – | 226.8
196.77 K | – | 227.4
198.65 K | – | 227.8
200 K | – | 228.5
200.52 K | – | 228.5
201.82 K | – | 229.6
202.53 K | – | 229.1
203.25 K | – | 229.2
203.96 K | – | 229.6
204.67 K | – | 230.4
205.41 K | – | 230.1
206.12 K | – | 230.8
206.84 K | – | 231.4
207.55 K | – | 231.1
208.27 K | – | 231.1
208.98 K | – | 232.1
209.69 K | – | 232
210 K | – | 232.1
210.4 K | – | 232.3
211.12 K | – | 232.6
211.83 K | – | 233
212.55 K | – | 233.1
213.26 K | – | 233.6
213.97 K | – | 233.7
214.69 K | – | 233.6
215.4 K | – | 234.1
216.12 K | – | 234.1
216.87 K | – | 233.8
217.59 K | – | 234.2
218.3 K | – | 234.6
219.02 K | – | 235.9
219.73 K | – | 236
220 K | – | 235.8
220.45 K | – | 236.2
221.17 K | – | 236
221.89 K | – | 237
222.6 K | – | 237
223.33 K | – | 236.7
224.04 K | – | 237.6
224.76 K | – | 237.8
225.48 K | – | 237.8
226.2 K | – | 238
226.92 K | – | 238.6
227.65 K | – | 238.6
228.42 K | – | 239.6
229.14 K | – | 239.3
229.86 K | – | 239.6
230 K | – | 239.7
230.59 K | – | 239.5
231.31 K | – | 240.6
232.04 K | – | 240.4
233.48 K | – | 240.4
234.2 K | – | 240.9
235.65 K | – | 242
236.37 K | – | 242.7
237.1 K | – | 242.3
237.82 K | – | 242.2
238.55 K | – | 243.6
239.27 K | – | 243.4
240 K | – | 243.7
240.05 K | – | 243.3
240.77 K | – | 243.8
241.5 K | – | 243.9
242.22 K | – | 244.6
242.94 K | – | 245.2
243.67 K | – | 244.9
244.39 K | – | 244.9
245.12 K | – | 245.9
246.57 K | – | 247
247.3 K | – | 245.8
248.03 K | – | 247
248.76 K | – | 247.9
249.49 K | – | 247.9
250 K | – | 247.9
250.22 K | – | 248.3
251.77 K | – | 248
252.51 K | – | 248.4
253.24 K | – | 249
253.98 K | – | 249.8
254.72 K | – | 250.5
255.46 K | – | 250.1
256.2 K | – | 251
256.95 K | – | 251.3
257.7 K | – | 250.7
258.45 K | – | 251.2
259.2 K | – | 251.6
259.95 K | – | 252.5
260 K | – | 252.2
260.71 K | – | 252.3
261.46 K | – | 252.8
262.22 K | – | 253.6
263.85 K | – | 253.7
264.62 K | – | 254.4
265.39 K | – | 254.4
266.16 K | – | 255.3
266.93 K | – | 255.3
267.7 K | – | 255.9
268.48 K | – | 256.3
269.26 K | – | 256.4
270 K | – | 256.6
270.82 K | – | 256.8
273.2 K | – | 258
274 K | – | 258.2
274.8 K | – | 258.2
275.61 K | – | 258.9
276.58 K | – | 259.7
277.39 K | – | 259.4
279.03 K | – | 261.1
279.86 K | – | 261.4
280 K | – | 260.9
280.69 K | – | 261
282.66 K | – | 262.3
283.22 K | – | 262.3
284.18 K | – | 262.8
284.95 K | – | 263.7
285.74 K | – | 263.4
287.3 K | – | 264
287.56 K | – | 264.4
288.43 K | – | 264.7
288.86 K | – | 264.2
290 K | – | 265.2
290.42 K | – | 264.9
290.43 K | – | 265.6
291.99 K | – | 265.5
295.17 K | – | 266.9
298.15 K | – | 268.7
298.38 K | – | 268.5
299.98 K | – | 269.1
300 K | – | 269.6
301.59 K | – | 269.8
303.21 K | – | 270.6
304.86 K | – | 271.6
306.49 K | – | 272.2
308.3 K | – | 273.1
309.95 K | – | 274
310 K | – | 274
311.6 K | – | 274.4
313.27 K | – | 275.7
314.92 K | – | 276.5
316.58 K | – | 277.2
318.24 K | – | 278.5
319.91 K | – | 278.9
320 K | – | 278.7
321.57 K | – | 279.3
323.26 K | – | 280.8
324.94 K | – | 281.6
326.61 K | – | 282.4
328.29 K | – | 283.1
329.99 K | – | 283.8
330 K | – | 283.7
331.66 K | – | 284.7
333.33 K | – | 285.5
335.19 K | – | 285.9
336.85 K | – | 286.8
338.51 K | – | 287.9
340 K | – | 289
340.16 K | – | 289
341.81 K | – | 290
343.47 K | – | 291.2
345.13 K | – | 291.6
346.78 K | – | 292.3
348.44 K | – | 293
350 K | – | 294.5
350.08 K | – | 294.6
351.76 K | – | 295.7
353.42 K | – | 296.9
